Assay results from patent publication US10626095B2, “Cyanotriazole compounds” (OTSUKA PHARMACEUTICAL CO., LTD., priority 2013, dated 2020).

Tests used:
[1] = test system: Zucker Diabetic Fatty (ZDF) rat; experiment: Meal load test in type 2 diabetic model rats (postprandial blood glucose); format: in vivo; parameters: unit not given here; conditions: ZDF rats fasted overnight, oral 10 mg/kg in 5% Arabia gum, blood glucose one hour after meal loading (50 kcal/kg)
Procedure: Effects on Type 2 Diabetes: Meal Load Test
To evaluate whether a cyanotriazol compound improves diabetes or not, especially related to postprandial blood glucose, meal load test was performed using one of type 2 diabetic model rats, the Zucker Diabetic Fatty (ZDF) rat (Charles river, Japan). About 24 animals fasted overnight (17 h) were taken blood samples from the tail veins, and measured blood glucose levels (Pre BG) and body weights (BW). Proper animals were selected and divided into […] (n=6) based on the Pre BG and BW using SAS Statistical Analysis System (SAS institute Japan Ltd. Release 9.1). The compounds to be tested (10 or 30 mg/kg body weight in 5% Arabia gum) or Arabia gum solution only (vehicle group) were orally administrated via gavage two hours prior to or just before meal loading (50 kcal/kg body weight). The meal suspension was prepared by mixing purified AIN-93G (Norsan Corp, Yokohama, Japan) and distilled water (2:3, w/v). One-hour after meal loading, blood glucose (BG1h) of each animal was measured. Effectiveness of each compound was shown by ? BG1h (BG1h difference between compound group and vehicle group). Although a set of 24 animals was used several times (from 13 weeks to 21 weeks of age), at least a one-week interval was placed from one to another test.

[2] = test system: NaCT-CHO (CHO cells stably expressing human NaCT); experiment: Assay of the citric acid cycle activation ([1,5-14C]-citric acid, diffusion of [14C]-CO2); format: cell-based; conditions: 1 hour incubation at 37° C. with [1,5-14C]-citric acid
Procedure, shortened: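 NaCT-CHO cells (pME-CHO empty-vector cells for non-specific counts) were incubated 1 h at 37 °C in Na+-containing HEPES-Tris pH 7.4 with compound plus an equal volume of 0.4 mM [1,5-14C]-citric acid solution. Residual cell radioactivity was counted, [14C]-CO2 diffusion was taken as (Total−R)/(Total−NS)×100%, and EC50 was derived by regression.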

SMILES	BG1h (BG1h difference between compound group and vehicle group) [1]	EC50 [2] [nM]
N#Cc1[nH]nnc1-c1cccc(/C=C/c2ccc3c(c2)OC(F)(F)O3)c1 [Example 1017, 5-{3-[(E)-2-(2,2-difluoro-benzo[1,3]dioxol-5-yl)-vinyl]-phenyl}-3H-[1,2,3]triazole-4-carbonitrile]	−124.6	1000
CCOc1cc(/C=C/c2cccc(C(F)(F)F)c2)cc(-c2nn[nH]c2C#N)c1 [Example 644, 5-{3-ethoxy-5-[(E)-2-(3-trifluoromethyl-phenyl)-vinyl]-phenyl}-3H-[1,2,3]triazole-4-carbonitrile]	−131.0	2350
N#Cc1[nH]nnc1-c1cccc(/C=C/c2cc(C(F)(F)F)ccn2)c1 [Example 50, 5-{3-[(E)-2-(4-trifluoromethyl-pyridin-2-yl)-vinyl]-phenyl}-3H-[1,2,3]triazole-4-carbonitrile]	−120.0	440
N#Cc1[nH]nnc1-c1cc(Cl)cc(-c2cc(C(F)(F)F)cc(C(F)(F)F)c2)c1 [Example 275, 5-(5-chloro-3′,5′-bis-trifluoromethyl-biphenyl-3-yl)-3H-[1,2,3]triazole-4-carbonitrile]	−83.3	1040
N#Cc1[nH]nnc1-c1cc(OC(F)(F)F)cc(-c2ccc3c(c2)OC(F)(F)O3)c1 [Example 934, 5-[3-(2,2-difluoro-benzo[1,3]dioxol-5-yl)-5-trifluoromethoxy-phenyl]-3H-[1,2,3]triazole-4-carbonitrile]	−87.2	510
N#Cc1[nH]nnc1-c1cccc(/C=C/c2cc3ccccc3s2)c1 [Example 1004, 5-[3-((E)-2-benzo[b]thiophen-2-yl-vinyl)-phenyl]-3H-[1,2,3]triazole-4-carbonitrile]	−89.8	1800
N#Cc1[nH]nnc1-c1csc(-c2cccc(C(F)(F)F)c2)n1 [Example 78, 5-[2-(3-trifluoromethyl-phenyl)-thiazol-4-yl]-3H-[1,2,3]triazole-4-carbonitrile]	−93.7	510
N#Cc1[nH]nnc1-c1cccc(/C=C/c2cccc(C(F)(F)F)c2)c1 [Example 613, 5-{3-[(E)-2-(3-trifluoromethyl-phenyl)-vinyl]-phenyl}-3H-[1,2,3]triazole-4-carbonitrile]	−138.8	430
Cc1cc(-c2ccc(C(F)(F)F)nc2)cc(-c2nn[nH]c2C#N)c1 [Example 11, 5-[3-methyl-5-(6-trifluoromethyl-pyridin-3-yl)-phenyl]-3H-[1,2,3]triazole-4-carbonitrile]	−93.2	670
N#Cc1[nH]nnc1-c1csc(-c2ccc(Cl)cc2)n1 [Example 75, 5-[2-(4-chloro-phenyl)-thiazol-4-yl]-3H-[1,2,3]triazole-4-carbonitrile]	−83.2	880
N#Cc1[nH]nnc1-c1cc(/C=C/c2ccc(F)cc2F)cc(C(F)(F)F)c1 [Example 645, 5-{3-[(E)-2-(2,4-difluoro-phenyl)-vinyl]-5-trifluoromethyl-phenyl}-3H-[1,2,3]triazole-4-carbonitrile]	−121.6	1090
N#Cc1[nH]nnc1-c1cc(N2CCCCC2)nc(-c2ccccc2)n1 [Example 1672, 5-(2-phenyl-6-(piperidin-1-yl)-pyrimidin-4-yl)-3H-[1,2,3]triazole-4-carbonitrile]	−94.8	1290
N#Cc1[nH]nnc1-c1cc(Cl)cc(/C=C/c2cccc(OC(F)(F)F)c2)c1 [Example 649, 5-{3-chloro-5-[(E)-2-(3-trifluoromethoxy-phenyl)-vinyl]-phenyl}-3H-[1,2,3]triazole-4-carbonitrile]	−99.4	2470
N#Cc1[nH]nnc1-c1nc(-c2cccc(C(F)(F)F)c2)sc1Cl [Example 108, 5-[5-chloro-2-(3-trifluoromethyl-phenyl-phenyl)-thiazol-4-yl]-3H-[1,2,3]triazole-4-carbonitrile]	−101.9	420
N#Cc1[nH]nnc1-c1cc(/C=C/c2cccc(C(F)(F)F)n2)cc(C(F)(F)F)c1 [Example 51, 5-{3-trifluoromethyl-5-[(E)-2-(6-trifluoromethyl-pyridin-2-yl)-vinyl]-phenyl}-3H-[1,2,3]triazole-4-carbonitrile]	−79.0	760
N#Cc1[nH]nnc1-c1cccc(/C=C/c2ccc(C(F)(F)F)cc2)c1 [Example 617, 5-{3-[(E)-2-(4-trifluoromethyl-phenyl)-vinyl]-phenyl}-3H-[1,2,3]triazole-4-carbonitrile]	−113.3	480
N#Cc1[nH]nnc1-c1cccc(/C=C/c2cccc(C(F)(F)F)n2)c1 [Example 1018, 5-{3-[(E)-2-(6-trifluoromethyl-pyridin-2-yl)-vinyl]-phenyl}-3H-[1,2,3]triazole-4-carbonitrile]	−59.2	1170
Cc1sc(-c2ccc(C(F)(F)F)cc2)nc1-c1nn[nH]c1C#N [Example 92, 5-[5-methyl-2-(4-trifluoromethyl-phenyl)-thiazol-4-yl]-3H-[1,2,3]triazole-4-carbonitrile]	−69.2	820
N#Cc1[nH]nnc1-c1cccc(COc2cc(C(F)(F)F)ccn2)c1 [Example 55, 5-[3-(4-trifluoromethyl-pyridin-2-yloxymethyl)-phenyl]-3H-[1,2,3]triazole-4-carbonitrile]	−110.2	650
CCc1sc(-c2ccc(Cl)cc2)nc1-c1nn[nH]c1C#N [Example 98, 5-[2-(4-chloro-phenyl)-5-ethyl-thiazol-4-yl]-3H-[1,2,3]triazole-4-carbonitrile]	−87.9	590
N#Cc1[nH]nnc1-c1cccc(/C=C/c2ccc(F)cc2F)c1 [Example 646, 5-{3-[(E)-2-(2,4-difluoro-phenyl)-vinyl]-phenyl}-3H-[1,2,3]triazole-4-carbonitrile]	−89.3	620
N#Cc1[nH]nnc1-c1cc(Cl)cc(-c2ccc(OC(F)(F)F)cc2)c1 [Example 29, 5-(5-chloro-4′-trifluoromethoxy-biphenyl-3-yl)-3H-[1,2,3]triazole-4-carbonitrile]	−37.3	680
N#Cc1[nH]nnc1-c1csc(-c2ccc(Cl)c(Cl)c2)n1 [Example 77, 5-[2-(3,4-dichloro-phenyl)-thiazol-4-yl]-3H-[1,2,3]triazole-4-carbonitrile]	−61.3	910
N#Cc1[nH]nnc1-c1cccc(-c2ccc3c(c2)OC(F)(F)O3)c1 [Example 931, 5-[3-(2,2-difluoro-benzo[1,3]dioxol-5-yl)-phenyl]-3H-[1,2,3]triazole-4-carbonitrile]	−76.4	690
COc1cc(-c2cc(C(F)(F)F)ccn2)cc(-c2nn[nH]c2C#N)c1 [Example 15, 5-[3-methoxy-5-(4-trifluoromethyl-pyridin-2-yl)-phenyl]-3H-[1,2,3]triazole-4-carbonitrile]	−50.5	490
Cc1sc(-c2ccc(F)c(Cl)c2)nc1-c1nn[nH]c1C#N [Example 90, 5-[2-(3-chloro-4-fluoro-phenyl)-5-methyl-thiazol-4-yl]-3H-[1,2,3]triazole-4-carbonitrile]	−119.0	560
N#Cc1ccc(/C=C/c2cccc(-c3nn[nH]c3C#N)c2)cc1 [Example 41, 5-{3-[(E)-2-(4-cyano-phenyl)-vinyl]-phenyl}-3H-[1,2,3]triazole-4-carbonitrile]	−158.0	390
N#Cc1[nH]nnc1-c1cc(-c2cccc(C(F)(F)F)n2)cc(C(F)(F)F)c1 [Example 14, 5-[3-trifluoromethyl-5-(6-trifluoromethyl-pyridin-2-yl)-phenyl]-3H-[1,2,3]triazole-4-carbonitrile]	−79.2	500
N#Cc1[nH]nnc1-c1ccc(/C=C/c2ccc(F)cc2)o1 [Example 1505, 5-{5-[(E)-2-(4-fluoro-phenyl)-vinyl]-furan-2-yl}-3H-[1,2,3]triazole-4-carbonitrile]	−123.5	420
